Results from article PMC9413390 (Molecules, 2022).
Structures can show the parent of a compound that is named as a salt. Where two headings read alike, the source gives them in different places.

Tests used:
σ1R = target: T1, σ1R (Cavia porcellus, UniProt Q60492); assay: σ1R radioligand competition binding assay ([3H]-(+)-pentazocine, guinea pig brain cortex membranes); details: for Ki σ2R/σ1R selectivity ratio: ratio of Ki σ2R to Ki σ1R
T1 construct: The thawed membrane preparation of guinea pig brain cortex (250 μg/sample) was incubated; from tissue; host or cells: brain cortex membranes of male Dunkin-Hartley guinea pigs
T1 sequence (Q60492 whole entry): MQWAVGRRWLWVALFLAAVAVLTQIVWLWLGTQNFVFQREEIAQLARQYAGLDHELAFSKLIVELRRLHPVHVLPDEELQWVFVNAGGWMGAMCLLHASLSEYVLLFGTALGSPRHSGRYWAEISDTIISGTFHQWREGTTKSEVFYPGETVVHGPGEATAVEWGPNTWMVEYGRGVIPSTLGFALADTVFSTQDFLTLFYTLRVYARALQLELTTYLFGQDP

σ2R = target: T2, σ2R (Rattus norvegicus, UniProt Q5U3Y7); assay: σ2R radioligand competition binding assay ([3H]DTG, rat liver membranes)
T2 construct: The thawed membrane preparation of rat liver (250 μg/sample) was incubated; from tissue; host or cells: liver membranes of male Sprague-Dawley rats
T2 sequence (Q5U3Y7 1-176): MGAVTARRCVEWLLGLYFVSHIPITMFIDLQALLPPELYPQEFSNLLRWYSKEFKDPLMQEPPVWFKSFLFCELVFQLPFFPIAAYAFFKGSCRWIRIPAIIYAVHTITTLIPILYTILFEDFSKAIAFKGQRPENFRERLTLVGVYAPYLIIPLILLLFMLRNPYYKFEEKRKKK

MOR = target: T3, MOR (Rattus norvegicus, UniProt P33535); assay: MOR radioligand binding assay ([3H]-DAMGO, rat brain membranes)
T3 construct: from tissue; host or cells: brain membranes of male Sprague-Dawley rats
T3 sequence (P33535 whole entry): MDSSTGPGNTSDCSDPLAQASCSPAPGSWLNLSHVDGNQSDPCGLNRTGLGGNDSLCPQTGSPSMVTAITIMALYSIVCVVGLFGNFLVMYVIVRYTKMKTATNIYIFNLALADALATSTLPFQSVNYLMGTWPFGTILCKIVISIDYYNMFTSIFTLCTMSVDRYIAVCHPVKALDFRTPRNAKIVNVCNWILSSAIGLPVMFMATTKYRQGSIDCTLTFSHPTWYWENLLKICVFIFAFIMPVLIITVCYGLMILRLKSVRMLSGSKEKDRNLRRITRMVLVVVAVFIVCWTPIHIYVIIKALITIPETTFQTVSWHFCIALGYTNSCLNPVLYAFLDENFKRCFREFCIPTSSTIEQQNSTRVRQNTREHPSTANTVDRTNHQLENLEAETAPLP

DOR = target: T4, DOR (Rattus norvegicus, UniProt P33533); assay: DOR radioligand binding assay ([3H]-Deltorphin II, rat brain membranes)
T4 construct: from tissue; host or cells: brain membranes of male Sprague-Dawley rats
T4 sequence (P33533 whole entry): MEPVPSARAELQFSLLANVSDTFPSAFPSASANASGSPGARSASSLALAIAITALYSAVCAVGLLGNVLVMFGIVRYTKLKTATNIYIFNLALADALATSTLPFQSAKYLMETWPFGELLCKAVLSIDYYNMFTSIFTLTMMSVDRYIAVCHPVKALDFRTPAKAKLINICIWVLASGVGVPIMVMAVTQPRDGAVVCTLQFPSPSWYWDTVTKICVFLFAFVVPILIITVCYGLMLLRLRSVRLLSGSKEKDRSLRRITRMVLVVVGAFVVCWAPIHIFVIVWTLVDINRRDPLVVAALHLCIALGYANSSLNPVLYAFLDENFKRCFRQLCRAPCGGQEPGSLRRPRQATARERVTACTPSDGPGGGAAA

KOR = target: T5, KOR (Cavia porcellus, UniProt P41144); assay: biochemical; assay type: binding, guinea pig
T5 construct: from tissue; host or cells: brain membranes of male Dunkin-Hartley guinea pigs
T5 sequence (P41144 whole entry): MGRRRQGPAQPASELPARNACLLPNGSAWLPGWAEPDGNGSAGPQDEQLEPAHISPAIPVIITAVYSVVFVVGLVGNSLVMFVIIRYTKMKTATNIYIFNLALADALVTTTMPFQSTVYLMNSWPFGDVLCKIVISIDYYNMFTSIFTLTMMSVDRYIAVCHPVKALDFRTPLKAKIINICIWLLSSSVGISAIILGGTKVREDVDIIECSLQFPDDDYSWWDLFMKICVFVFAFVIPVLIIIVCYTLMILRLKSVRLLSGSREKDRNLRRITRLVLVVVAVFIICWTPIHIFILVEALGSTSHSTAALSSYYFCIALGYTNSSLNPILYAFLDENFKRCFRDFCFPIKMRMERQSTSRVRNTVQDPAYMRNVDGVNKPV

[1] = system: formalin-induced pain behaviour; assay: Mouse formalin test; assay type: in vivo
Method: Mice injected with 5% formalin into the mid-plantar surface of the right hind paw developed the characteristic formalin-induced pain behaviour, evidenced by a biphasic flinching and lifting/licking response. The time course of formalin-induced behaviours evidenced an immediate and acute nociceptive activity (0–5 min, phase I) that, after a short quiescent period (5–10 min, interphase), was followed by a more prolonged response (10–60 min, phase II).
To evaluate the systemic antinociceptive effect in both phases of the formalin test, vehicle, (−)-2R-LP2 (2) (2mg/kg), (−)-2S-LP2 (3) (0.7 mg/kg), (+)-2R/S-LP2 (7) (5 mg/kg), and (+)-2R-LP2 (8) (5 mg/kg) were administrated intraperitoneally (i.p.) 20 min before formalin injection, at doses chosen in accordance to previous studies.
Experiments were performed on male CD1 mice (Envigo Laboratories, Indianapolis, IN, USA) aged between 8 and 12 weeks. Mice were housed in 5 animals per cage under a 12/12 h light/dark cycle at a constant temperature (23–25 °C) with free access to food and water, and were allowed to acclimate for at least one week upon arrival before starting all experiments, which were conducted between 9:00 a.m. and 3:00 p.m. This study was executed according to the European Communities Council directive and Italian regulation (EEC Council 2010/63/EU and Italian D.Lgs. no. 26/2014) to replace, reduce, and refine the use of laboratory animals. All procedures were approved by the ethical committee of the University of Catania (OPBA) and by the Italian Ministry of Health (authorization n° 385/2021-PR).
Formalin and naloxone hydrochloride were purchased from Merck. PRE-84 synthesis was reported in the supporting information (Figure S7). All compounds were dissolved in pyrogen-free isotonic saline and dimethyl sulfoxide, (DMSO 0.5% v/v). All LP compounds were administrated i.p. 20 min before formalin injection. Naloxone hydrochloride s.c. and PRE-084 hydrochloride s.c. were administered 20 min before the injection of the LP compounds.
Formalin solution (5%, 10 μL) was administered subcutaneously into the plantar surface of the right hind paw (i.pl.), monitoring the nociceptive behavior, such as licking and flicking or shanking the injected paw, for 1 h and recording every 5 min, as previously reported.
The formalin injection induces a rapid pain response (phase I), which lasts about 5 min, due to direct nociceptors’ activation, characterized by an acute form of pain. After a short quiescent period, another behavioral pain form (phase II) occurs, considered more important clinically, characterized by an inflammatory component and persistent pain due to nociceptive sensitization in the dorsal horn of the spinal cord.
Results are expressed as mean ± S.E.M. (n = 8–10 per group). * p < 0.05, ** p < 0.01. Two-way ANOVA was followed by Bonferroni’s multiple comparison test. Statistical analyses were performed using GraphPad Prism version 9.3.1 (GraphPad Software, San Diego, CA, USA).

[2] = system: formalin-induced pain behaviour; parameters: method as in PMID 32186844, PMID 19587856; details: mouse, injected alone; cited from earlier work
[3] = 5 mg/kg i.p. 20 min before formalin, vs vehicle

SMILES | Ki (σ1R) [nM] | Ki (σ2R) [µM] | Ki (MOR) [µM] | Ki (DOR) [µM] | Ki (KOR) [µM] | other results
COC(CN1CC[C@]2(C)c3cc(O)ccc3C[C@H]1[C@H]2C)c1ccccc1 (single isomer, unassigned; (+)) [(+)-2R/S-LP2 (7)] | 26.6 ± 2.35 | 2.39 ± 0.514 | 1.14 ± 0.02 | 1.03 ± 0.035 | 1.39 ± 0.04 | severity of the first phase of formalin-induced pain ([1]; 5 mg/kg i.p. 20 min before formalin, phase I): did not alter; second phase of formalin-induced pain (number of flinches, lifting/licking time) ([1]; 5 mg/kg i.p. 20 min before formalin, phase II, vs vehicle): significantly decreased; antinociceptive effect after PRE-084 pre-treatment ([1]; PRE-084 hydrochloride 32 mg/kg s.c. 20 min before compound 5 mg/kg i.p., second phase): prevented
COC(CN1CC[C@@]2(C)c3cc(O)ccc3C[C@@H]1[C@@H]2C)c1ccccc1 (single isomer, unassigned; (-)) [(−)-2R/S-LP2 (1)] | 171 ± 46.1 | 0.0665 ± 0.0109 | – | – | – | –
CO[C@@H](CN1CC[C@]2(C)c3cc(O)ccc3C[C@H]1[C@H]2C)c1ccccc1 [(+)-2R-LP2 (8), (2S,6S,11S)-3-((R)-2-methoxy-2-phenylethyl)-6,11-dimethyl-1,2,3,4,5,6-hexahydro-2,6-methanobenzo[d]azocin-8-ol] | 47.9 ± 7.52 | 1.91 ± 0.325 | 0.789 ± 0.03 | 1.01 ± 0.025 | 1.61 ± 0.07 | Ki σ2R/σ1R selectivity ratio (σ1R): 40; effect on nociceptive behaviour in the formalin test [1, 3]: not significative
CO[C@H](CN1CC[C@]2(C)c3cc(O)ccc3C[C@H]1[C@H]2C)c1ccccc1 [(+)-2S-LP2 (9), (2S,6S,11S)-3-((S)-2-methoxy-2-phenylethyl)-6,11-dimethyl-1,2,3,4,5,6-hexahydro-2,6-methanobenzo[d]azocin-8-ol] | 47 ± 8.82 | 2.22 ± 0.417 | 1.17 ± 0.03 | 1.04 ± 0.04 | 1.45 ± 0.029 | Ki σ2R/σ1R selectivity ratio (σ1R): 47; effect on nociceptive behaviour in the formalin test [1, 3]: did not differ significantly from the vehicle
CO[C@@H](CN1CC[C@@]2(C)c3cc(O)ccc3C[C@@H]1[C@@H]2C)c1ccccc1 [(−)-2R-LP2 (2)] | 183 ± 21 | 0.0667 ± 0.0179 | – | – | – | analgesic effect, flinching/licking time in both phases of the formalin test ([1]; 2 mg/kg i.p. 20 min before 5% formalin): same profile with a minor potency
CO[C@H](CN1CC[C@@]2(C)c3cc(O)ccc3C[C@@H]1[C@@H]2C)c1ccccc1 [(−)-2S-LP2 (3)] | 113 ± 13.5 | 1.01 ± 0.191 | – | – | – | analgesic effect, flinching/licking time in both phases of the formalin test ([1]; 0.7 mg/kg i.p. 20 min before 5% formalin): significant analgesic effect; antinociceptive effect after naloxone pre-treatment ([1]; naloxone hydrochloride 3 mg/kg s.c. 20 min before compound 0.7 mg/kg i.p.): antagonized
CN1CCN(CCc2ccc(Cl)c(Cl)c2)CC1 [BD-1063, reference compound] | – | – | – | – | – | Ki (σ1R; [3H]-(+)-pentazocine 2 nM, guinea pig brain cortex membranes, read-out: Ki (nM) ± SD σ1R): 14 ± 2.7 nM
O=C(OCCN1CCOCC1)C1(c2ccccc2)CCCCC1 [PRE-084 hydrochloride, 2-morpholinoethyl 1-phenylcyclohexane-1-carboxylate] | – | – | – | – | – | severity of the first and second phases of formalin-induced pain, given alone [2]: did not change
